Measured values: patent publication US3989837A, “Pharmaceutical compositions” (Chinoin Gyogyszer-es Vegyeszeti Termekek Gyara RT, priority 1972, dated 1976)
Several values for one entry are separate records, joined by “and”; a condition that tells them apart may be missing. Equal entries are not always repeated.

Experiments:
[1] = Toxicity on mice after oral administration, single dosage (Table 1'); type: in vivo; settings: mouse, in vivo, po; male mice, p.o., 168 hours; read-out: LD50
Description: (§1) The tests were carried out on male mice weighing 25 to 30 g., not starved previously. The compounds were administered in a dosage of 0.2 ml. of suspension per 10 g. body weight. The individual dosages indicated in Table 1' were administered to 10 mice each. The given amount of active agent was added in a single dosage, and the animals were dept under observation for 7 days (= 168 hours). The number of deceased animals was recorded daily.
(§2) The LD50 values were calculated according to the Litchfied-Wilcoxon method, by also taking into account the number of animals perished within 168 hours from the administration.

mice = experiment: as above; type: in vivo; settings: male mice
Description: as §1, §2

kaoline oedema = experiment: Rat paw oedema, kaoline (Table 4'); type: in vivo; settings: female rats; for Effect % (average), inhibition of kaoline oedema: average of repeated tests
Description: (§3) Inflammatory plantar oedema was provided by the subplantar injection of 0.1 ml. of 5% kaoline or 0.5% carrageenine on female rats each weighing 110 to 130 g., starved for 24 hours. The dorsoplantar diameter of the test animals was measured with a double-armed instrument prior to the administration of the phlogistic (basic value) and at regular intervals (at 2, 3.5 and 5 hours for kaoline and at 1.5, 3 and 4.5 hours for carrageenine) after the administration of the phlogistic. […] The treatment was always carried out 1 hour before the administration of the phlogistic. The animals belonging to the control group received suspending agent only. In order to ensure a uniform hydration grade, 1 ml. of tap water was administered through a stomach tube to the animals simultaneously with the administration of the active agent. During the test period the animals were allowed to consume water ad libitum.
(§4) The effect was calculated from the difference of the increase in paw diameter observed in the treated and control groups. The daga are given as percentage efficiacy.
(§5) The significance level was examined by Student's t test. The significance levels are marked by asterisks; the values of the repeated tests are given separately.

carrageenine oedema = experiment: Rat paw oedema, carrageenine (Table 5'); type: in vivo; settings: female rats, p.o. 10 mg./kg.; for Effect % (average), inhibition of carrageenine oedema: average of repeated tests
Description: as §3, §4, §5

cotton granuloma = experiment: Cotton granuloma, comparison with Indomethacine (Table 6); type: in vivo, rat; settings: male rats, oral daily 4 mg./kg., 7 days, p 0.001
Description: Two cotton beads, each weighing 23 to 27 mg., were implanted under the dorsal skin of the animals in aether narcosis, under semisterile conditions, along both sides of the vertebral column. The compound under examination was administered twice a day for 7 days in oral dosages of 0.2 ml./100 g. body weight, in a suspension formed with 1% methyl cellulose. On the 8th day the animals were killed by etheral overnarcosis, the granulomes were removed, dried at 50° C for 5 hours, and then weighed. The animals belonging to the control group were treated similarly, but they received suspending agent only. The percentage efficiacy was calculated from the weight differences of the granuloma tissues observed for the treated and control groups. The significance was examined by the t test.

writhing syndrome = experiment: Writhing syndrome, comparison with Indomethacine (Table 7); type: in vivo, mouse; settings: male mice
Description: The tests were carried out on male mice each weighing 15 to 18 g., starved for 16 hours prior to treatment. 0.1 ml./10 g. body weight of 1% acetic acid solution was injected intraperitoneally to the animals. The sterile inflammation occurred on the action of acetic acid provoked a characteristic syndrome (writhing). The number of writhings was counted during an observation period of 20 minutes, starting 15 minutes after the administration of acetic acid. The substance to be tested was administered orally as a suspension, in a dosage of 0.1 ml./10 g. body weight 2 to 4 hours before the acetic acid injection. The average number of writhings observed for the treated animals was compared to that observed in the control group, and the percentage inhibition was calculated from the difference.

rats = experiment: Ulcerogeneous action on rats, comparison with Indomethacine (Table 3'); settings: male rats, 5 days

COc1ccc2c(c1)c(CC(=O)O)c(C)n2C(=O)c1ccc(Cl)cc1 [Indomethacine, reference compound]
LD50 at 168 h [1]: 140 mg/kg | Perished animals/treated animals (mice; oral 50 mg./kg., 24 h): 0/10 | Perished animals/treated animals (mice; oral 50 mg./kg., 48 h): 0/10 | Perished animals/treated animals (mice; oral 50 mg./kg., 72 h): 0/10 | Perished animals/treated animals (mice; oral 50 mg./kg., 96 h): 0/10 | Perished animals/treated animals (mice; oral 50 mg./kg., 120 h): 0/10 | Perished animals/treated animals (mice; oral 50 mg./kg., 144 h): 0/10 | Perished animals/treated animals (mice; oral 50 mg./kg., 168 h): 0/10 | Perished animals/treated animals (mice; oral 150 mg./kg., 24 h): 0/10 | Perished animals/treated animals (mice; oral 150 mg./kg., 48 h): 0/10 | Perished animals/treated animals (mice; oral 150 mg./kg., 72 h): 0/10 | Perished animals/treated animals (mice; oral 150 mg./kg., 96 h): 2/10 | Perished animals/treated animals (mice; oral 150 mg./kg., 120 h): 4/10 | Perished animals/treated animals (mice; oral 150 mg./kg., 144 h): 6/10 | Perished animals/treated animals (mice; oral 150 mg./kg., 168 h): 6/10 | Perished animals/treated animals (mice; oral 300 mg./kg., 24 h): 0/10 | Perished animals/treated animals (mice; oral 300 mg./kg., 48 h): 0/10 | Perished animals/treated animals (mice; oral 300 mg./kg., 72 h): 4/10 | Perished animals/treated animals (mice; oral 300 mg./kg., 96 h): 6/10 | Perished animals/treated animals (mice; oral 300 mg./kg., 120 h): 8/10 | Perished animals/treated animals (mice; oral 300 mg./kg., 144 h): 10/10 | Perished animals/treated animals (mice; oral 300 mg./kg., 168 h): 10/10 | Perished animals/treated animals (mice; oral 500 mg./kg., 24 h): 0/10 | Perished animals/treated animals (mice; oral 500 mg./kg., 48 h): 2/10 | Perished animals/treated animals (mice; oral 500 mg./kg., 72 h): 4/10 | Perished animals/treated animals (mice; oral 500 mg./kg., 96 h): 7/10 | Perished animals/treated animals (mice; oral 500 mg./kg., 120 h): 9/10 | Perished animals/treated animals (mice; oral 500 mg./kg., 144 h): 10/10 | Perished animals/treated animals (mice; oral 500 mg./kg., 168 h): 10/10 | Perished animals/treated animals (mice; oral 700 mg./kg., 24 h): 1/10 | Perished animals/treated animals (mice; oral 700 mg./kg., 48 h): 5/10 | Perished animals/treated animals (mice; oral 700 mg./kg., 72 h): 5/10 | Perished animals/treated animals (mice; oral 700 mg./kg., 96 h): 7/10 | Perished animals/treated animals (mice; oral 700 mg./kg., 120 h): 9/10 | Perished animals/treated animals (mice; oral 700 mg./kg., 144 h): 9/10 | Perished animals/treated animals (mice; oral 700 mg./kg., 168 h): 10/10 | Perished animals/treated animals (mice; oral 900 mg./kg., 24 h): 1/10 | Perished animals/treated animals (mice; oral 900 mg./kg., 48 h): 4/10 | Perished animals/treated animals (mice; oral 900 mg./kg., 72 h): 6/10 | Perished animals/treated animals (mice; oral 900 mg./kg., 96 h): 8/10 | Perished animals/treated animals (mice; oral 900 mg./kg., 120 h): 10/10 | Perished animals/treated animals (mice; oral 900 mg./kg., 144 h): 10/10 | Perished animals/treated animals (mice; oral 900 mg./kg., 168 h): 10/10 | Effect %, inhibition of kaoline oedema (kaoline oedema; p.o. 10 mg./kg., 2 hours): 14.7% and 19.7% | Effect % (average), inhibition of kaoline oedema (kaoline oedema; p.o. 10 mg./kg., 2 hours): 17.2% | Effect %, inhibition of kaoline oedema (kaoline oedema; p.o. 10 mg./kg., 3.5 hours): 19.5% and 27.6% | Effect % (average), inhibition of kaoline oedema (kaoline oedema; p.o. 10 mg./kg., 3.5 hours): 23.5% | Effect %, inhibition of kaoline oedema (kaoline oedema; p.o. 10 mg./kg., 5 hours): 21.2% and 27.2% | Effect % (average), inhibition of kaoline oedema (kaoline oedema; p.o. 10 mg./kg., 5 hours): 24.2% | Effect %, inhibition of kaoline oedema (kaoline oedema; p.o. 25 mg./kg., 2 hours): 33.7% and 32.7% | Effect % (average), inhibition of kaoline oedema (kaoline oedema; p.o. 25 mg./kg., 2 hours): 33.2% | Effect %, inhibition of kaoline oedema (kaoline oedema; p.o. 25 mg./kg., 3.5 hours): 35.1% and 37.1% | Effect % (average), inhibition of kaoline oedema (kaoline oedema; p.o. 25 mg./kg., 3.5 hours): 36.1% | Effect %, inhibition of kaoline oedema (kaoline oedema; p.o. 25 mg./kg., 5 hours): 32.1% and 44.4% | Effect % (average), inhibition of kaoline oedema (kaoline oedema; p.o. 25 mg./kg., 5 hours): 38.2% | Effect %, inhibition of carrageenine oedema (carrageenine oedema; 1.5 hours): 24.1% and 20.6% | Effect % (average), inhibition of carrageenine oedema (carrageenine oedema; 1.5 hours): 22.3% | Effect %, inhibition of carrageenine oedema (carrageenine oedema; 3 hours): 32.9% and 28.8% | Effect % (average), inhibition of carrageenine oedema (carrageenine oedema; 3 hours): 30.8% | Effect %, inhibition of carrageenine oedema (carrageenine oedema; 4.5 hours): 19.8% and 20.9% | Effect % (average), inhibition of carrageenine oedema (carrageenine oedema; 4.5 hours): 20.3% | Effect %, cotton granuloma (cotton granuloma): 36.0% | Effect %, writhing (writhing syndrome; p.o. 5 mg./kg., 2 hours): 58.2% and 61.1% | Effect % average, writhing (writhing syndrome; p.o. 5 mg./kg., 2 hours): 59.6% | Effect %, writhing (writhing syndrome; p.o. 5 mg./kg., 4 hours): 65.7% and 43.7% | Effect % average, writhing (writhing syndrome; p.o. 5 mg./kg., 4 hours): 54.7% | Effect %, writhing (writhing syndrome; p.o. 12.5 mg./kg., 2 hours): 73.6% and 67.2% | Effect % average, writhing (writhing syndrome; p.o. 12.5 mg./kg., 2 hours): 70.4% | Effect %, writhing (writhing syndrome; p.o. 12.5 mg./kg., 4 hours): 85.8% and 70.0% | Effect % average, writhing (writhing syndrome; p.o. 12.5 mg./kg., 4 hours): 77.9% | Animals having lesions on the intestines (rats; oral 4 mg./kg.): 5% | Perishment (rats; oral 4 mg./kg.): 0/20 | Survivals (rats; oral 4 mg./kg.): 20 | Ulcer index (rats; oral 4 mg./kg.): 0.45 | Ulcer number (rats; oral 4 mg./kg.): 0.1 | Animals having lesions on the intestines (rats; oral 8 mg./kg.): 40% | Perishment (rats; oral 8 mg./kg.): 10/20 | Survivals (rats; oral 8 mg./kg.): 10 | Ulcer index (rats; oral 8 mg./kg.): 0.3 | Ulcer number (rats; oral 8 mg./kg.): 0
